Data published in patent US6064908A, “Device for ionophoresis comprising at least a membrane electrode assembly, for the transcutaneous administration of active principles to a subject” (Elf Aquitaine, priority 1996, dated 2000).

Conditions: not told
Description: In each of the determinations mentioned above, samples of the liquid contained in the receiver compartment were taken after determined durations and, by assaying the antifactor Xa activity of the said samples, the quantity of pentasaccharide which has passed into the receiver compartment through the membrane was obtained.

Permeability (to pentasaccharide), passive: ~ 0 μg/cm^2
Substance: polyamide-11
